Source: patent US12723024B2 (priority 2021, dated 2026)
Where two headings read alike, the source gives them in different places.

Legend:
[1] = Thermogravimetric analysis (TGA) weight loss; format: physicochemical; conditions: salt screening sample, at the temperature given (80-200° C.)
From the text: (§1) According to the salt screening results (see Table 4), totally 19 potential salt hits were identified. All the potential salt hits were further investigated by Differential Scanning Calorimetry (DSC), Thermogravimetric analysis (TGA), H-NMR, Ion chromatography (IC), Karl Fischer titration (KF), and Polarized Light Microscopy (PLM) to confirm their identity and evaluate their physicochemical properties as shown in Table 5 below.

[2] = Salt screening (slurry crystallization); format: physicochemical; parameters: key to Salt screening result: (+) shows that a crystalline salt was formed; (−) physical mixtures; conditions: for Polymorph obtained in salt screening: XRPD; for Salt screening result: slurry 50° C. then 25° C.
Procedure: About 45 mg was added to a suitable solvent and different equivalents of acids were added under stirring at 50° C. for about 2 hours and then at 25° C. for at least 32 hours. Ethanol, acetone, and ACN were used as screening solvents. When no precipitation was obtained or only a few solids were obtained, the solutions were placed at 5° C. for crystallization.
(§2) Obtained suspensions were taken out and centrifuged. Solids obtained was analysed by XRPD. Salts with high or medium crystallinity were further characterized (see Table 5).

[3] = Hygroscopicity (water uptake) of salt hits; format: physicochemical; conditions: salt screening sample; for Hygroscopicity: grade in words
From the text: as §1

Crystallinity by XRPD = format: physicochemical
Procedure: as §2, §1

[4] = Thermogravimetric analysis (TGA) weight loss; format: physicochemical; conditions: large scale batch
[5] = Dynamic vapor sorption (DVS) test at 25° C.; format: physicochemical; conditions: for Desorp. (%) / Sorp. (%): cycle 40-0-95-0-40% RH
[6] = format: physicochemical; conditions: for chemical purity (%): solid state
[7] = format: physicochemical; conditions: salt screening sample
From the text: as §1

## CC(=O)O.COc1cc(C(F)(F)F)c(OC)cc1[C@@H]1CCCNC1 [Acetate salt Polymorph A]
[1]
  Weight loss (%): 0.2%
[2]; ACN
  Polymorph obtained in salt screening: Polymorph A
  Salt screening result: +
[2]; Acetone
  Polymorph obtained in salt screening: Polymorph A
  Salt screening result: +
[2]; EtOH
  Salt screening result: Clear solution
[3]
  Hygroscopicity: None
Crystallinity by XRPD; salt screening sample
  Crystallinity: High

## COc1cc(C(F)(F)F)c(OC)cc1[C@@H]1CCCNC1.Cl [HCl salt of (S)-3-(2,5-dimethoxy-4-(trifluoromethyl)phenyl)piperidine]
[4]; at the temperature (100-170° C.), listed as hydrochloride salt (polymorph A)
  Weight loss (%) at Temperature (° C.): about 0.3%
[4]; at the temperature printed in the same cell (100-170° C.)
  Weight loss (%) at Temperature (° C.): 0.3 at %
[1]
  Weight loss (%): 0.08%
[2]; ACN
  Polymorph obtained in salt screening: Polymorph A
  Salt screening result: +
[2]; Acetone
  Polymorph obtained in salt screening: Polymorph A
  Salt screening result: +
[2]; EtOH
  Polymorph obtained in salt screening: Polymorph A
  Salt screening result: +
[5]; 0% RH, 25° C.
  Desorp. (%): 0.01%
  Sorp. (%): 0.00%
[5]; 10% RH, 25° C.
  Desorp. (%): 0.01%
  Sorp. (%): 0.01%
[5]; 20% RH, 25° C.
  Desorp. (%): 0.012%
  Sorp. (%): 0.01%
[5]; 25° C.
  Water absorbed from 40% RH to 95% RH: about 0.17%
[5]; 30% RH, 25° C.
  Desorp. (%): 0.03%
  Sorp. (%): 0.01%
[5]; 40% RH, 25° C.
  Desorp. (%): 0.03%
  Sorp. (%): 0.01%
[5]; 50% RH, 25° C.
  Desorp. (%): 0.04%
  Sorp. (%): 0.01%
[5]; 60% RH, 25° C.
  Desorp. (%): 0.04%
  Sorp. (%): 0.02%
[5]; 70% RH, 25° C.
  Desorp. (%): 0.04%
  Sorp. (%): 0.03%
[5]; 80% RH, 25° C.
  Desorp. (%): 0.07%
  Sorp. (%): 0.05%
[5]; 90% RH, 25° C.
  Desorp. (%): 0.12%
  Sorp. (%): 0.12%
[5]; 95% RH, 25° C.
  Desorp. (%): 0.19%
  Sorp. (%): 0.19%
[5]; DVS at 25° C., grade in words, listed as hydrochloride salt (polymorph A)
  Hygroscopicity: non-hygroscopic
[5]; DVS at 25° C., listed as hydrochloride salt (polymorph A)
  XRPD after DVS test: No form changes
[6]; before storage
  Initial chemical purity (%): 99.8%
[6]; 25° C./92% RH, open container, 1 week
  chemical purity (%): 99.8%
[6]; 40° C./75% RH, open container, 1 week
  chemical purity (%): 99.8%
[6]; 60° C., tight container, 1 week
  chemical purity (%): 99.8%
[6]; stressed conditions: 25° C./92% RH, 40° C./75% RH, 60° C., 1 week
  Bulk stability: chemically and physically stable
[3]
  Hygroscopicity: None
Crystallinity by XRPD; large scale batch
  Crystallinity: High
Crystallinity by XRPD; large scale batch, listed as hydrochloride salt (polymorph A)
  Crystallinity: high crystallinity
Crystallinity by XRPD; salt screening sample
  Crystallinity: High

## COc1cc(C(F)(F)F)c(OC)cc1[C@@H]1CCCNC1.COc1cc(C(F)(F)F)c(OC)cc1[C@@H]1CCCNC1.O=C(O)CCC(=O)O [Hemi-succinate salt Polymorph B]
[1]
  Weight loss (%): 4.8%
[2]; ACN
  Polymorph obtained in salt screening: Polymorph A
  Salt screening result: +
[2]; Acetone
  Polymorph obtained in salt screening: Polymorph A
  Salt screening result: +
[2]; EtOH
  Polymorph obtained in salt screening: Polymorph A
  Salt screening result: +
[3]
  Hygroscopicity (water uptake % w/w): (~1.8%) % w/w
  Hygroscopicity: Hygroscopic
Crystallinity by XRPD; salt screening sample
  Crystallinity: Medium

## COc1cc(C(F)(F)F)c(OC)cc1[C@@H]1CCCNC1.N[C@@H](CC(=O)O)C(=O)O [L-aspartate salt Polymorph A]
[1]
  Weight loss (%): 3.9%
[2]; ACN
  Polymorph obtained in salt screening: Polymorph A
  Salt screening result: +
[2]; Acetone
  Salt screening result: −
[2]; EtOH
  Polymorph obtained in salt screening: Polymorph A
  Salt screening result: +
[3]
  Hygroscopicity (water uptake % w/w): (~4.3%) % w/w
  Hygroscopicity: Hygroscopic
Crystallinity by XRPD; salt screening sample
  Crystallinity: High
[7]
  Water content (% w/w): 7.0% w/w

## COc1cc(C(F)(F)F)c(OC)cc1[C@@H]1CCCNC1.N[C@@H](CCC(=O)O)C(=O)O [L-glutamate salt Polymorph A]
[1]
  Weight loss (%): 4.8%
Crystallinity by XRPD; salt screening sample
  Crystallinity: Low
[7]
  Water content (% w/w): 8.6% w/w
